target: human TrkA receptor (Homo sapiens (Human), UniProt P04629); test: TrkA functional activity, DiscoverX PathHunter assay; assay type: cell-based; details: U2OS cells expressing human TrkA-PK, Shc1-EA and p75NTR; compound 1 h, then NGF at ~80% of maximal response for 3 h; luminescence
Sequence (P04629 33-796): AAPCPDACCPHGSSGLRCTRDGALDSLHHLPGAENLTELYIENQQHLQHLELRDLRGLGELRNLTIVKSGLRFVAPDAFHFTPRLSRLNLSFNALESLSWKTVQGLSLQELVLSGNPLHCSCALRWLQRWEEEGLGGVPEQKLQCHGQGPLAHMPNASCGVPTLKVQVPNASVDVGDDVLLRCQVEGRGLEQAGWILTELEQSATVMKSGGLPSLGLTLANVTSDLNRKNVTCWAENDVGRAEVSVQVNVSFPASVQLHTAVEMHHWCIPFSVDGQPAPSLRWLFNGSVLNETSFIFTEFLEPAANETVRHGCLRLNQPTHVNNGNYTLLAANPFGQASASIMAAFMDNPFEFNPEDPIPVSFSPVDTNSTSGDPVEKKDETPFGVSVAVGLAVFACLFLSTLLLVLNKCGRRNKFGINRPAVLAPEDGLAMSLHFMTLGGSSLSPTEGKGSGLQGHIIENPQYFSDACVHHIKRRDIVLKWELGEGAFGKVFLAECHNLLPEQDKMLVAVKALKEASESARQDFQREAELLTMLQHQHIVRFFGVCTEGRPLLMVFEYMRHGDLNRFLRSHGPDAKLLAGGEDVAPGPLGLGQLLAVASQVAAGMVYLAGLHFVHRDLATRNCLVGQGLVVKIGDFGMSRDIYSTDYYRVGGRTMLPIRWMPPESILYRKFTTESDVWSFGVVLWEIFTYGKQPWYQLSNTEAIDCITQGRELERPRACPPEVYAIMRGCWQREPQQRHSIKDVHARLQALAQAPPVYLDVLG

SMILES | IC50 [nM]
CC(O)c1ccc2c(NC(=O)c3cc(-c4ncccn4)c(C(F)(F)F)cc3Cl)n(-c3ccccc3)nc2c1 (single isomer, unassigned; isomer b) [Compound 38, (R or S)-2-chloro-N-[6-(1-hydroxyethyl)-2-phenyl-2H-indazol-3-yl]-5-pyrimidin-2-yl-4-(trifluoromethyl)benzamide, isomer B] | 4.9
O=C(Nc1c2ncc(C(O)CO)cc2nn1-c1ccccc1)c1cc(-c2ncccn2)c(C(F)(F)F)cc1Cl (single isomer, unassigned; isomer b) [Compound 65, (R or S)-2-chloro-N-[6-(1,2-dihydroxyethyl)-2-phenyl-2H-pyrazolo[4,3-b]pyridin-3-yl]-5-pyrimidin-2-yl-4-(trifluoromethyl)benzamide, isomer B] | 29
Cn1ccc(-c2cc(C(=O)Nc3c4cc(C#N)ccc4nn3-c3ccccc3)ccc2C(F)(F)F)n1 [Compound 4, N-(5-cyano-2-phenyl-2H-indazol-3-yl)-3-(1-methyl-1H-pyrazol-3-yl)-4-(trifluoromethyl)benzamide] | 8.8
Cn1ccc(-c2cc(C(=O)Nc3c4ncccc4nn3-c3ccccc3)c(F)cc2C(F)(F)F)n1 [Compound 5, 2-fluoro-5-(1-methyl-1H-pyrazol-3-yl)-N-(2-phenyl-2H-pyrazolo[4,3-b]pyridin-3-yl)-4-(trifluoromethyl)benzamide] | 0.66
Cn1ccc(-c2cc(C(=O)Nc3c4cccnc4nn3-c3ccccc3)c(F)cc2C(F)(F)F)n1 [Compound 6, 2-fluoro-5-(1-methyl-1H-pyrazol-3-yl)-N-(2-phenyl-2H-pyrazolo[3,4-b]pyridin-3-yl)-4-(trifluoromethyl)benzamide] | 6.1
Cn1ccc(-c2cc(C(=O)Nc3c4cc(C(F)(F)F)ccc4nn3-c3ccccc3)c(F)cc2C(F)(F)F)n1 [Compound 7, 2-fluoro-5-(1-methyl-1H-pyrazol-3-yl)-N-[2-phenyl-5-(trifluoromethyl)-2H-indazol-3-yl]-4-(trifluoromethyl)benzamide] | 29
CC(=O)NCc1cccc(-n2nc3cccnc3c2NC(=O)c2cc(-c3ncccn3)c(C(F)(F)F)cc2F)c1 [Compound 9, N-(2-{3-[(acetylamino)methyl]phenyl}-2H-pyrazolo[4,3-b]pyridin-3-yl)-2-fluoro-5-pyrimidin-2-yl-4-(trifluoromethyl)benzamide] | 744
Cn1ccc(-c2cc(C(=O)Nc3c4cc(CO)ccc4nn3-c3ccccc3)ccc2C(F)(F)F)n1 [Compound 10, N-(5-(Hydroxymethyl)-2-phenyl-2H-indazol-3-yl)-3-(1-methyl-1H-pyrazol-3-yl)-4-(trifluoromethyl)benzamide] | 0.84
O=C(Nc1c2ccc(CO)cc2nn1-c1ccccc1)c1cc(-c2cc[nH]n2)c(C(F)(F)F)cc1F [Compound 14, 2-fluoro-N-[6-(hydroxymethyl)-2-phenyl-2H-indazol-3-yl]-5-(1H-pyrazol-3-yl)-4-(trifluoromethyl)benzamide] | 1.2
Cn1ccc(-c2cc(C(=O)Nc3c4cc(CO)ncc4nn3-c3ccccc3)c(F)cc2C(F)(F)F)n1 [Compound 18, 2-fluoro-N-[5-(hydroxymethyl)-2-phenyl-2H-pyrazolo[3,4-c]pyridin-3-yl)-5-(1-methyl-1H-pyrazol-3-yl)-4-(trifluoromethyl)benzamide] | 1.9
CC(C)(O)c1cnc2c(NC(=O)c3cc(-c4ncccn4)c(C(F)(F)F)cc3F)n(-c3ccccc3)nc2c1 [Compound 40, 2-Fluoro-N-(6-(2-hydroxypropan-2-yl)-2-phenyl-2H-pyrazolo[4,3-b]pyridin-3-yl)-5-(pyrimidin-2-yl)-4-(trifluoromethyl)benzamide] | 3.9
Cn1ccc(-c2cc(C(=O)Nc3c4ncc(C(C)(C)O)cc4nn3-c3ccccc3)c(F)cc2C(F)(F)F)n1 [Compound 41, 2-Fluoro-N-(6-(2-hydroxypropan-2-yl)-2-phenyl-2H-pyrazolo[4,3-b]pyridin-3-yl)-5-(1-methyl-1H-pyrazol-3-yl)-4-(trifluoromethyl)benzamide] | 0.16
Cn1ccc(-c2cc(C(=O)Nc3c4nc(C(C)(C)O)ncc4nn3-c3ccccc3)c(F)cc2C(F)(F)F)n1 [Compound 43, 2-Fluoro-N-(5-(2-hydroxypropan-2-yl)-2-phenyl-2H-pyrazolo[4,3-d]pyrimidin-3-yl)-5-(1-methyl-1H-pyrazol-3-yl)-4-(trifluoromethyl)benzamide] | 33
CC(C)(O)c1ccc2c(NC(=O)c3cc(-c4ncccn4)c(C(F)(F)F)cc3Cl)n(-c3ccccc3)nc2c1 [Compound 46, 2-chloro-N-[6-(1-hydroxy-1-methylethyl)-2-phenyl-2H-indazol-3-yl]-5-pyrimidin-2-yl-4-(trifluoromethyl)benzamide] | 1.7
CC(C)(O)c1cnc2c(NC(=O)c3cc(-c4cc[nH]n4)c(C(F)(F)F)cc3F)n(-c3ccccc3)nc2c1 [Compound 47, 2-fluoro-N-[6-(1-hydroxy-1-methylethyl)-2-phenyl-2H-pyrazolo[4,3-b]pyridin-3-yl]-5-(1H-pyrazol-3-yl)-4-(trifluoromethyl)benzamide] | 2.6
Cn1ccc(-c2cc(C(=O)Nc3c4ncc(C(C)(C)O)cc4nn3-c3ccccc3)ccc2C(F)(F)F)n1 [Compound 48, N-[6-(1-hydroxy-1-methylethyl)-2-phenyl-2H-pyrazolo[4,3-b]pyridin-3-yl]-3-(1-methyl-1H-pyrazol-3-yl)-4-(trifluoromethyl)benzamide] | 5.2

The remaining lines, values ahead:

IC50 [nM] | SMILES
13 | O=C(Nc1c2ccc(C(O)C(F)F)cc2nn1-c1ccccc1)c1cc(-c2ncccn2)c(C(F)(F)F)cc1F (single isomer, unassigned; isomer b) [Compound 57, (R or S)-N-[6-(2,2-difluoro-1-hydroxyethyl)-2-phenyl-2H-indazol-3-yl]-2-fluoro-5-pyrimidin-2-yl-4-(trifluoromethyl)benzamide, isomer B]
4.9 | O=C(Nc1c2cc(C(O)C(F)F)ccc2nn1-c1ccccc1)c1cc(-c2ncccn2)c(C(F)(F)F)cc1F (single isomer, unassigned; isomer b) [Compound 59, (R or S)-N[5-(2,2-difluoro-1-hydroxyethyl)-2-phenyl-2H-indazol-3-yl]-2-fluoro-5-pyrimidin-2-yl-4-(trifluoromethyl)benzamide, isomer B]
5.2 | O=C(Nc1c2ncccc2nn1-c1ccccc1)c1cc(-c2ncccn2)c(C(F)(F)F)cc1F [Compound 1, 2-Fluoro-N-(2-phenyl-2H-pyrazolo[4,3-b]pyridin-3-yl)-5-pyrimidin-2-yl-4-(trifluoromethyl)benzamide]
6 | O=C(Nc1c2[nH]c(=O)ccc2nn1-c1ccccc1)c1cc(-c2ncccn2)c(C(F)(F)F)cc1F [Compound 2, 2-Fluoro-N-(5-oxo-2-phenyl-4,5-dihydro-2H-pyrazolo[4,3-b]pyridin-3-yl)-5-(pyrimidin-2-yl)-4-(trifluoromethyl)benzamide]
122 | O=C(Nc1c2ncccc2nn1-c1cccc(CO)c1)c1cc(-c2ncccn2)c(C(F)(F)F)cc1F [Compound 3, 2-Fluoro-N-(2-(3-(hydroxymethyl)phenyl)-2H-pyrazolo[4,3-b]pyridin-3-yl)-5-(pyrimidin-2-yl)-4-(trifluoromethyl)benzamide]
18 | COc1ccc2nn(-c3ccccc3)c(NC(=O)c3cc(-c4ncccn4)c(C(F)(F)F)cc3F)c2n1 [Compound 8, 2-fluoro-N-(5-methoxy-2-phenyl-2H-pyrazolo[4,3-b]pyridin-3-yl)-5-pyrimidin-2-yl-4-(trifluoromethyl)benzamide]
20 | O=C(Nc1c2cc(CO)ncc2nn1-c1ccccc1)c1cc(-c2ncccn2)c(C(F)(F)F)cc1F [Compound 11, 2-Fluoro-N-(5-(hydroxymethyl)-2-phenyl-2H-pyrazolo[3,4-c]pyridin-3-yl)-5-(pyrimidin-2-yl)-4-(trifluoromethyl)benzamide]
2.6 | O=C(Nc1c2cc(CO)ccc2nn1-c1ccccc1)c1cc(-c2ncccn2)c(C(F)(F)F)cc1F [Compound 12, 2-fluoro-N-[5-(hydroxymethyl)-2-phenyl-2H-indazol-3-yl]-5-pyrimidin-2-yl-4-(trifluoromethyl)benzamide]
3.8 | O=C(Nc1c2ccc(CO)cc2nn1-c1ccccc1)c1cc(-c2ncccn2)c(C(F)(F)F)cc1F [Compound 13, 2-fluoro-N-[6-(hydroxymethyl)-2-phenyl-2H-indazol-3-yl]-5-pyrimidin-2-yl-4-(trifluoromethyl)benzamide]
74 | Cc1cc(-n2nc3ccc(CO)cc3c2NC(=O)c2cc(-c3ncccn3)c(C(F)(F)F)cc2F)n[nH]1 [Compound 15, 2-fluoro-N-[5-(hydroxymethyl)-2-(5-methyl-1H-pyrazol-3-yl)-2H-indazol-3-yl]-5-pyrimidin-2-yl-4-(trifluoromethyl)benzamide]
7.9 | O=C(Nc1c2ccc(CO)cc2nn1-c1ccccc1)c1cc(-c2ncccn2)c(C(F)(F)F)cc1Cl [Compound 16, 2-chloro-N-[6-(hydroxymethyl)-2-phenyl-2H-indazol-3-yl]-5-pyrimidin-2-yl-4-(trifluoromethyl)benzamide]
18 | O=C(Nc1c2nc(CO)ccc2nn1-c1ccccc1)c1cc(-c2ncccn2)c(C(F)(F)F)cc1Cl [Compound 17, 2-chloro-N-[5-(hydroxymethyl)-2-phenyl-2H-pyrazolo[4,3-b]pyridin-3-yl]-5-pyrimidin-2-yl-4-(trifluoromethyl)benzamide]
12 | CC(C)(O)c1cnc2nn(-c3ccccc3)c(NC(=O)c3cc(-c4ncccn4)c(C(F)(F)F)cc3F)c2c1 [Compound 45, 2-fluoro-N-[5-(1-hydroxy-1-methylethyl)-2-phenyl-2H-pyrazolo[3,4-b]pyridin-3-yl]-5-pyrimidin-2-yl-4-(trifluoromethyl)benzamide]
1.6 | O=C(Nc1c2cc(C3(O)CC3)ccc2nn1-c1ccccc1)c1cc(-c2ncccn2)c(C(F)(F)F)cc1F [Compound 50, 2-Fluoro-N-(5-(1-hydroxycyclopropyl)-2-phenyl-2H-indazol-3-yl)-5-(pyrimidin-2-yl)-4-(trifluoromethyl)benzamide]
